Among the data in DBAASP are MIC values, retold here.

What all share (test): ≥ marks a high value that may be exact or a test limit, other limits are often not marked, values filed in µg/mL are converted to µM
Test [1] deals with Micrococcus luteus BCRC 11034.
In test [2] the test system is Streptococcus pneumoniae BCRC 10794.
For test [3], the system named is Pseudomonas aeruginosa.
Test [4] has as its system Staphylococcus aureus BCRC 10780.
The subject of test [5] is Vibrio harveyi BCRC 13812.
The test system of test [6] is Staphylococcus aureus.
Test [7] deals with Staphylococcus sp. BCRC 10451.
Test [8] relates to Streptococcus agalactiae.
Test [9] has as its system Vibrio alginolyticus.
Test [10] relates to Vibrio vulnificus 204.
The subject of test [11] is Enterococcus faecium ATCC 700221.
In test [12] the test system is Candida albicans ATCC 200955.
The test system of test [13] is Staphylococcus aureus ATCC 33591.
Test [14] has as its system Escherichia coli ATCC 25922.
The subject of test [15] is Pseudomonas aeruginosa ATCC 27853.
In test [16] the test system is Staphylococcus aureus ATCC 25325.
For test [17], the system named is Escherichia coli ATCC 35218.
Test [18] concerns Staphylococcus aureus ATCC 25023.
For test [19], the system named is Escherichia coli HP101BA 7601c.
Test [20] concerns Bacillus cereus PTCC 1247.
Test [21] deals with Staphylococcus aureus PTCC 1431.
For test [22], the system named is Klebsiella pneumoniae PTCC 1388.

In brackets after ≈: the same amount, converted by molar mass.

By MIC is commonly meant the smallest concentration in the dilution series that meets the test's criterion for growth inhibition. Take `CC[C@H](C)[C@H](NC(=O)[C@H](CCCCN)NC(=O)[C@@H]1CCCN1C(=O)[C@@H](NC(=O)[C@H](CC(C)C)NC(=O)[C@H](C)NC(=O)[C@H](Cc1ccccc1)NC(=O)[C@H](Cc1ccccc1)NC(=O)CNC(C)=O)[C@@H](C)CC)C(=O)N[C@H](C(=O)N[C@@H](CO)C(=O)N[C@@H](CO)C(=O)N1CCC[C@H]1C(=O)N[C@@H](CC(C)C)C(=O)N[C@@H](Cc1ccccc1)C(=O)N[C@@H](CCCCN)C(=O)N[C@H](C(=O)N[C@@H](CC(C)C)C(=O)N[C@@H](CC(C)C)C(=O)N[C@@H](CO)C(=O)N[C@@H](C)C(=O)N[C@H](C(=O)NCC(=O)N[C@@H](CO)C(=O)N[C@@H](C)C(=O)N[C@@H](CC(C)C)C(=O)N[C@@H](CO)C(N)=O)C(C)C)[C@@H](C)O)[C@@H](C)CC` [GFFALIPKIISSPLFKTLLSAVGSALS]: the MIC came to 9 µM (≈ 25.4 µg/mL) in test [1]; 18 µM (≈ 50.7 µg/mL) in test [2]; 4.5 µM (≈ 12.7 µg/mL) in [3]; 18 µM (≈ 50.7 µg/mL) in test [4]; 4.5 µM (≈ 12.7 µg/mL) in test [5]; 4.5 µM (≈ 12.7 µg/mL) in test [6]. The MIC in test [7] stood at 2.25 µM (≈ 6.34 µg/mL); in test [8], 18 µM (≈ 50.7 µg/mL); in test [9], 4.5 µM (≈ 12.7 µg/mL); in test [10], 18 µM (≈ 50.7 µg/mL).

Take `CC[C@H](C)[C@H](NC(=O)[C@H](CCCCN)NC(=O)[C@H](CCCCN)NC(=O)[C@H](CC(C)C)NC(=O)[C@H](CC(C)C)NC(=O)CN)C(=O)N[C@@H](CCCCN)C(=O)N[C@@H](CCCCN)C(=O)N[C@@H](CC(C)C)C(=O)N[C@@H](CC(C)C)C(N)=O` [GLLKKIKKLL]: the MIC is at least 56.9 µM in test [11]; 28.4 µM (≈ 32.7 µg/mL) in test [12]; at least 256 µM in test [13]; 25 µM (≈ 28.8 µg/mL) in test [14]; 28.4 µM (≈ 32.7 µg/mL) in test [15].

As to `CC(C)C[C@H](NC(=O)[C@H](C)NC(=O)[C@H](C)NC(=O)[C@H](CCCCN)NC(=O)CNC(=O)[C@@H](NC(=O)[C@H](Cc1cnc[nH]1)NC(=O)[C@H](CCCCN)NC(=O)CNC(=O)[C@@H](NC(=O)[C@H](Cc1cnc[nH]1)NC(=O)[C@H](C)NC(=O)[C@H](C)NC(=O)[C@H](CCCCN)NC(=O)[C@@H](N)CCCCN)C(C)C)C(C)C)C(=O)O` [KKAAHVGKHVGKAAL], the MIC in test [16] came out at 20.2 µM (≈ 30.6 µg/mL); in test [17], 16.1 µM (≈ 24.4 µg/mL); in test [15] it was 29.5 µM (≈ 44.7 µg/mL).

For `CC(C)C[C@H](NC(=O)[C@H](CCCN=C(N)N)NC(=O)[C@H](CC(C)C)NC(=O)[C@H](CC(C)C)NC(=O)[C@H](CC(C)C)NC(=O)[C@H](CC(C)C)NC(=O)[C@H](CC(C)C)NC(=O)[C@H](CCCCN)NC(=O)[C@H](CCCN=C(N)N)NC(=O)[C@@H](N)CC(C)C)C(N)=O` [LRKLLLLLRL], the MIC in [18] stood at 25.6 µM (≈ 32 µg/mL).

`CC[C@H](C)[C@H](NC(=O)[C@H](Cc1cnc[nH]1)NC(=O)[C@H](CCC(N)=O)NC(=O)[C@H](CCSC)NC(=O)[C@H](CCSC)NC(=O)[C@H](CCC(=O)O)NC(=O)[C@H](C)NC(=O)[C@H](C)NC(=O)[C@@H](NC(=O)[C@H](CO)NC(=O)[C@H](C)NC(=O)[C@@H](NC(=O)[C@H](Cc1ccccc1)NC(=O)[C@@H]1CCCN1C(=O)[C@@H](NC(=O)[C@@H](N)C(C)C)[C@@H](C)CC)C(C)C)C(C)C)C(=O)N[C@@H](Cc1ccccc1)C(=O)N[C@H]1CSSC[C@@H](C(=O)O)NC(=O)[C@H](CCCCN)NC(=O)[C@H](CCCN=C(N)N)NC(=O)[C@H](CO)NC(=O)[C@H](C)NC(=O)[C@H](C)NC1=O` [VIPFVASVAAEMMQHIFCAASRKC]: the MIC in test [19] turned out to be 3.06 µM (≈ 7.99 µg/mL); in [20], 4.6 µM (≈ 12 µg/mL); in test [21], 6.51 µM (≈ 17 µg/mL); in test [22], 5.36 µM (≈ 14 µg/mL).
